This data set is described as follows: Dynamic moisture-sorption (DMS). To be noted: for hygroscopicity by DMS: isotherm 25° C. Format: physicochemical. As to the method: Dynamic moisture-sorption (DMS) studies were conducted using a dynamic moisture-sorption analyzer, VTI Corporation, SGA-100, equipment #0228. Samples were prepared for DMS analysis by placing 5 mg to 20 mg of a sample in a tared sample holder. The sample was placed on the hang-down wire of the VTI balance. A drying step was run, typically at 40° C. and 0.5-1% RH for 1-2 h. The isotherm temperature is 25° C. Defined % RH holds typically ranged from 10% RH to 90% RH or 95% RH, with intervals of 10 to 20% RH. A % weight change smaller than 0.010% over a specified number of minutes (typically 10-20), or up to 2 h, whichever occurs first, is required before continuing to the next % RH hold. The water content of the sample equilibrated as described above was determined at each % RH hold.

The mark [1] stands for this setting: out to and including the 90% RH hold at 25° C.

The structures appear in SMILES notation.

Turning to `C[C@H]1CNCCc2ccc(Cl)cc21.C[C@H]1CNCCc2ccc(Cl)cc21.Cl.Cl.O`, the “hygroscopicity by DMS” value is recorded as “substantially non-hygroscopic”. In addition, the “hygroscopicity by DMS” value (listed as Compound 1 Hydrochloride Salt Hemihydrate, Form III) is “FIG. 4: non-hygroscopic”. In addition, the “water adsorbed in DMS” value under setting [1] was “less than 0.5 wt %”.

On to `C[C@H]1CNCCc2ccc(Cl)cc21.C[C@H]1CNCCc2ccc(Cl)cc21.O=S(=O)(O)c1cccc2c(S(=O)(=O)O)cccc12` [Compound 1 heminapadisilate salt], for which the “hygroscopicity by DMS” value is listed as “non-hygroscopic”. The “DMS weight gain at 90% RH” value under setting [1] was “about 0.68%”. The “DMS weight gain at 90% RH” value (out to and including the 90% RH hold at 25° C., Form I) is “FIG. 31: ~0.68% weight gain at about 90% RH”.
